Where a name gives a salt, the structure may show the parent alone.
Each compound was assayed against T1, human hNET (Homo sapiens, UniProt P23975) (assay: Functional Norepinephrine (NE) Uptake Assay in MDCK-Net6 cells). Conditions: MDCK-Net6 cells stably transfected with human hNET; 3H norepinephrine 16 nM.
T1 construct: expressed in transfected cells; host or cells: MDCK-Net6 (MDCK cells stably transfected)
Type: cell-based
Description: MDCK-Net6 cells, stably transfected with human hNET (Pacholczyk, T., R. D. Blakely, and S. G. Amara, Nature, 1991, 350(6316): p. 350-4) were cultured in growth medium containing high glucose DMEM (Gibco, Cat. No. 11995), 10% FBS (dialyzed, heat-inactivated, US Bio-Technologies, Lot FBD1129HI) and 500 μg/ml G418 (Gibco, Cat. No. 10131). Cells were plated at 300,000 T75 flask and cells were split twice weekly.
Functional Norepinephrine (NE) Uptake Assay
On day 1, cells were plated at 3,000 cells/well in growth medium and maintained in a cell incubator (37° C., 5% CO2). On day 2, growth medium was replaced with 200 μl of assay buffer (25 mM HEPES; 120 mM NaCl; 5 mM KCl; 2.5 mM CaCl2; 1.2 mM MgSO4; 2 mg/ml glucose (pH 7.4, 37° C.)) containing 0.2 mg/ml ascorbic acid and 1 μM pargyline. For screening, 25 μl of compound in 4% […] was added directly to each well and the plate is incubated for 5 minutes at 37° C.
To initiate the norepinephrine reuptake, 16 nM (final concentration) of ^3H norepinephrine (specific activity; 40-80 Ci/mmol) in assay buffer was delivered in 25 μl aliquots to each well, and the plates were incubated for 5 minutes at 37° C. The reaction was aspirated from the plate and the cells washed with 250 μl of 50 mM Tris Buffer (4° C.). The plates were left to dry for 1 hour. The cells were lysed using 0.25 M NaOH solution then placed on a shake table and vigorously shaken for 10 minutes. After cell lysis, 100 μl of Microscint 20 (PerkinElmer; #87-051101) were added to the plates and the plates were sealed with film tape and replaced on the shake table for a minimum of 10 minutes. The plates were counted in a TopCount counter (PerkinElmer).
For screening single point determinations, each compound plate contains at least 3 control wells (maximum NE reuptake determinant) and 3 non-specific wells determined by adding 20 μM of desipramine (minimum NE reuptake determinant). Determination of active compounds are calculated using a Microsoft Excel spread sheet applying the following formula: % inhibition=[1−((mean cpm test compound wells−mean cpm non-specific wells)/(mean cpm control wells−mean cpm non-specific wells))]×100
For IC50 determination, raw cpm values were generated in a data file from the TopCount counter. The data was organized in Microsoft Excel and transferred into PRIZM graphing and statistical program, which calculates the estimated IC50 value. Calculation of IC50 values were made using non-linear regression analysis with a sigmoidal dose response with variable slope. The statistical program used wells containing ^3H norepinephrine only as the maximal NE reuptake determinant and wells containing ^3H norepinephrine plus 20 μM desipramine as the minimal NE reuptake determinant (non-specific determinant). Estimation of the IC50 value was completed on a log scale and the line was fit between the maximal and minimal NE reuptake values.

T1 sequence (P23975 whole entry): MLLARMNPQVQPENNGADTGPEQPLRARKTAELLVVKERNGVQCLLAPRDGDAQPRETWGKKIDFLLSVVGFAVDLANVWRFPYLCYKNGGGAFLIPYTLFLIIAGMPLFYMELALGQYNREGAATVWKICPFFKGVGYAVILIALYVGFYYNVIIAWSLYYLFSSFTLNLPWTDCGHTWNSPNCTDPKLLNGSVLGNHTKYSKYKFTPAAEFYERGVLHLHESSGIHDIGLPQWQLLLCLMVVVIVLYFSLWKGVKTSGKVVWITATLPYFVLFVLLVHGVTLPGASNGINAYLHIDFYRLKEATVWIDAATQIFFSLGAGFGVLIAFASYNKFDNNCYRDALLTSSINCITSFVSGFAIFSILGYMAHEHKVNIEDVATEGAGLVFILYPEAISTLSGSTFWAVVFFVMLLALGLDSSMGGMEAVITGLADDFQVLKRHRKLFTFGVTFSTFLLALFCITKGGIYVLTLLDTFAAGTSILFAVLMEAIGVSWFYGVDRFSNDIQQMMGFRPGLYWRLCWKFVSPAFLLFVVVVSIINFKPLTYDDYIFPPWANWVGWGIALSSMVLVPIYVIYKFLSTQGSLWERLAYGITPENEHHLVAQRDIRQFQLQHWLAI

| Structure (SMILES) | IC50 [nM] |
| --- | --- |
| CNCCCCN1Cc2cc(F)ccc2N(c2ccccc2F)S1(=O)=O [Example 21, 4-[6-fluoro-1-(2-fluorophenyl)-2,2-dioxido-1,4-dihydro-3H-2,1,3-benzothiadiazin-3-yl]-N-methylbutan-1-amine] | 30 |
| CNCCCN1Cc2ccccc2N(c2ccc(F)c(Cl)c2)S1(=O)=O [Example 6, 3-[1-(3-chloro-4-fluorophenyl)-2,2-dioxido-1,4-dihydro-3H-2,1,3-benzothiadiazin-3-yl]-N-methylpropan-1-amine hydrochloride] | 1500 |
| O=S1(=O)N(CCCCNC2CC2)Cc2ccccc2N1c1ccccc1F [Example 16, N-{4-[1-(2-fluorophenyl)-2,2-dioxido-1,4-dihydro-3H-2,1,3-benzothiadiazin-3-yl]butyl}cyclopropanamine] | 139 |
| CNCCCN1Cc2ccccc2N(c2cccc(F)c2)S1(=O)=O [Example 2, 3-[1-(3-fluorophenyl)-2,2-dioxido-1,4-dihydro-3H-2,1,3-benzothiadiazin-3-yl]-N-methylpropan-1-amine hydrochloride] | 628 |
| O=S1(=O)N(CCNC2CC2)Cc2ccccc2N1c1ccccc1F [Example 12, N-{2-[1-(2-fluorophenyl)-2,2-dioxido-1,4-dihydro-3H-2,1,3-benzothiadiazin-3-yl]ethyl}cyclopropanamine] | 2380 |
| O=S1(=O)N(CCCNC2CC2)Cc2ccccc2N1c1ccccc1F [Example 14, N-{3-[1-(2-fluorophenyl)-2,2-dioxido-1,4-dihydro-3H-2,1,3-benzothiadiazin-3-yl]propyl}cyclopropanamine] | 956 |
| CNCCCN1Cc2ccccc2N(c2ccc(Cl)cc2)S1(=O)=O [Example 5, 3-[1-(4-chlorophenyl)-2,2-dioxido-1,4-dihydro-3H-2,1,3-benzothiadiazin-3-yl]-N-methylpropan-1-amine hydrochloride] | 908 |
| CNCCCN1Cc2ccccc2N(c2ccccc2)S1(=O)=O [Example 1, 3-(2,2-dioxido-1-phenyl-1,4-dihydro-3H-2,1,3-benzothiadiazin-3-yl)-N-methylpropan-1-amine hydrochloride] | 129 |
| CNC[C@@H](O)CCN1Cc2ccccc2N(c2ccccc2F)S1(=O)=O [Example 24, (2S)-4-[1-(2-fluorophenyl)-2,2-dioxido-1,4-dihydro-3H-2,1,3-benzothiadiazin-3-yl]-1-(methylamino)butan-2-ol] | 95 |
| O=S1(=O)N(CCCCNC2CC2)Cc2cc(F)ccc2N1c1ccccc1F [Example 22, N-{4-[6-fluoro-1-(2-fluorophenyl)-2,2-dioxido-1,4-dihydro-3H-2,1,3-benzothiadiazin-3-yl]butyl}cyclopropanamine] | 177 |
| CNCCCN1Cc2ccccc2N(c2ccccc2F)S1(=O)=O [Example 13, 3-[1-(2-fluorophenyl)-2,2-dioxido-1,4-dihydro-3H-2,1,3-benzothiadiazin-3-yl]-N-methylpropan-1-amine] | 29 |
| CNCCCN1Cc2ccccc2N(c2ccc(F)cc2)S1(=O)=O [Example 7, 3-[1-(4-fluorophenyl)-2,2-dioxido-1,4-dihydro-3H-2,1,3-benzothiadiazin-3-yl]-N-methylpropan-1-amine hydrochloride] | 492 |
| CNC[C@@H](O)CCN1Cc2cc(F)ccc2N(c2ccccc2F)S1(=O)=O [Example 23, (2S)-4-[6-fluoro-1-(2-fluorophenyl)-2,2-dioxido-1,4-dihydro-3H-2,1,3-benzothiadiazin-3-yl]-1-(methylamino)butan-2-ol] | 81 |
| O=S1(=O)N(CCCNC2CC2)Cc2cc(F)ccc2N1c1ccccc1F [Example 20, N-{3-[6-fluoro-1-(2-fluorophenyl)-2,2-dioxido-1,4-dihydro-3H-2,1,3-benzothiadiazin-3-yl]propyl}cyclopropanamine] | 1750 |
| O=S1(=O)N(CCNC2CC2)Cc2cc(F)ccc2N1c1ccccc1F [Example 18, N-{2-[6-fluoro-1-(2-fluorophenyl)-2,2-dioxido-1,4-dihydro-3H-2,1,3-benzothiadiazin-3-yl]ethyl}cyclopropanamine] | 2870 |
| CNCCCN1Cc2ccccc2N(c2ccc(C)cc2)S1(=O)=O [Example 8, N-methyl-3-[1-(4-methylphenyl)-2,2-dioxido-1,4-dihydro-3H-2,1,3-benzothiadiazin-3-yl]propan-1-amine hydrochloride] | 135 |
| CNCCCN1Cc2ccccc2N(c2ccc(F)c(F)c2)S1(=O)=O [Example 10, 3-[1-(3,4-difluorophenyl)-2,2-dioxido-1,4-dihydro-3H-2,1,3-benzothiadiazin-3-yl]-N-methylpropan-1-amine hydrochloride] | 973 |
| CNCCN1Cc2ccccc2N(c2ccccc2F)S1(=O)=O [Example 11, 2-[1-(2-fluorophenyl)-2,2-dioxido-1,4-dihydro-3H-2,1,3-benzothiadiazin-3-yl]-N-methylethanamine] | 200 |
| CNCCCN1Cc2ccccc2N(c2cccc(C)c2)S1(=O)=O [Example 3, N-methyl-3-[1-(3-methylphenyl)-2,2-dioxido-1,4-dihydro-3H-2,1,3-benzothiadiazin-3-yl]propan-1-amine hydrochloride] | 1030 |
| CNCCCN1Cc2ccccc2N(c2ccc(OC)cc2)S1(=O)=O [Example 9, 3-[1-(4-methoxyphenyl)-2,2-dioxido-1,4-dihydro-3H-2,1,3-benzothiadiazin-3-yl]-N-methylpropan-1-amine hydrochloride] | 3550 |
| CNCCCCN1Cc2ccccc2N(c2ccccc2F)S1(=O)=O [Example 15, 4-[1-(2-fluorophenyl)-2,2-dioxido-1,4-dihydro-3H-2,1,3-benzothiadiazin-3-yl]-N-methylbutan-1-amine] | 38 |
| CNCCN1Cc2cc(F)ccc2N(c2ccccc2F)S1(=O)=O [Example 17, 2-[6-fluoro-1-(2-fluorophenyl)-2,2-dioxido-1,4-dihydro-3H-2,1,3-benzothiadiazin-3-yl]-N-methylethanamine] | 1410 |
| CNCCCN1Cc2cc(F)ccc2N(c2ccccc2F)S1(=O)=O [Example 19, 3-[6-fluoro-1-(2-fluorophenyl)-2,2-dioxido-1,4-dihydro-3H-2,1,3-benzothiadiazin-3-yl]-N-methylpropan-1-amine] | 119 |
| CNCCCN1Cc2ccccc2N(c2cccc(OC)c2)S1(=O)=O [Example 4, 3-[1-(3-methoxyphenyl)-2,2-dioxido-1,4-dihydro-3H-2,1,3-benzothiadiazin-3-yl]-N-methylpropan-1-amine hydrochloride] | 792 |

Same assay, conditions: at 10 uM; MDCK-Net6 cells; printed in the IC50 column where 50% inhibition was not exceeded; read-out: hNET Uptake, % inhibition at highest concentration tested

| inhibition at 10 µM [%] | Structure (SMILES) |
| --- | --- |
| 47 | CNCCCN1c2ccccc2CN(c2ccccc2F)S1(=O)=O [Example 25, 3-[3-(2-fluorophenyl)-2,2-dioxido-3,4-dihydro-1H-2,1,3-benzothiadiazin-1-yl]-N-methylpropan-1-amine] |
| 36 | CNCCN1c2ccccc2CN(c2ccccc2F)S1(=O)=O [Example 26, 2-[3-(2-fluorophenyl)-2,2-dioxido-3,4-dihydro-1H-2,1,3-benzothiadiazin-1-yl]-N-methylethanamine] |

From patent publication US7718652B2, “Substituted benzothiadiazinedioxide derivatives and methods of their use” (Wyeth LLC, priority 2006, dated 2010)
